Results on six compounds are retold here after ChEMBL document CHEMBL1148535, “Hexylitaconic acid: a new inhibitor of p53-HDM2 interaction isolated from a marine-derived fungus, Arthrinium sp” (Bioorg Med Chem Lett, 2006).

Active and inactive are the calls of the source. The calls are words filed in the database; no cut-off is given here.

The first test has as its target T1, E3 ubiquitin-protein ligase Mdm2 (Homo sapiens, UniProt Q00987). The experiment in a line: Inhibition of p53-HDM2 interaction at 50 ug/ml.
Target sequence in this assay (Q00987 whole entry, looked up): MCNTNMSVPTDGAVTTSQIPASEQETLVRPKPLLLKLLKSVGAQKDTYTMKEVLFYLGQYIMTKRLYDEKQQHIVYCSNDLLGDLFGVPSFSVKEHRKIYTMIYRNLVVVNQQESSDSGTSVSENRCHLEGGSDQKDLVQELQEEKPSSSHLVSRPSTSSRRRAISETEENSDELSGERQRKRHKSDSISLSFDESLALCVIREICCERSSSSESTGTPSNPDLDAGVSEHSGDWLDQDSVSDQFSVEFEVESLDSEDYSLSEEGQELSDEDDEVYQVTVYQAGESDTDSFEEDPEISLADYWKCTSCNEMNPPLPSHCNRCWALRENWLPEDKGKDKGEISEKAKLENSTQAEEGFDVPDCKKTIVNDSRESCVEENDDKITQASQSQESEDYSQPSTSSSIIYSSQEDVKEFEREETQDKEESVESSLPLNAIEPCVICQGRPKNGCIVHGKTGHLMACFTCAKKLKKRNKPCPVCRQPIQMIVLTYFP
As for `C=C(C(=O)O)C(CCCCCC)C(=O)OC` (stereo unspecified), the result was inactive.

In the case of `C=C(CC(=O)O)C(=O)O`, the result was inactive.

As for `CCCCCCC(C(=O)O)C(C)C(=O)O` (stereo unspecified), the outcome was inactive.

Regarding `CCCCCCC(C(=O)OC)C(C)C(=O)O` (stereo unspecified), the outcome was inactive.

Consider `O=C(O)CCC(=O)O`, for which the outcome was inactive.

The target of another test is T1, E3 ubiquitin-protein ligase Mdm2. Put plainly: Inhibition of p53-HDM2 interaction.
Target sequence in this assay (Q00987 whole entry): as the sequence (Q00987 whole entry, looked up) above
The compound `C=C(C(=O)O)C(CCCCCC)C(=O)O` (stereo unspecified) [HEXYLITACONIC ACID] had an IC50 of 233 µM.
